Source: US9029168B2, “Use and making of biosensors utilizing antimicrobial peptides for highly sensitive biological monitoring” (priority 2010, dated 2015)

Assays:
Listeria monocytogenes = experiment: Selectivity of AMP-functionalized biosensor (impedance at 10 Hz, fluorescent microscopy), Gram-negative pathogens relative to Listeria; type: binding; conditions: all 10^7 CFU/mL
Experimental: (§1) As a next step, the selectivity of the AMP-functionalized biosensors toward various bacterial species was determined. Specifically, the binding behavior of AMPs was probed toward: 1) Gram-negative pathogenic E. coli O157:H7, 2) the non-pathogenic E. coli strain ATCC 35218, 3) Gram-negative pathogenic Salmonella typhimurium, and Listeria monocytogenes, a Gram-positive pathogen. Collectively, these studies elucidate the matrix of selectivity as it depends on Gram-negative vs. Gram-positive species, and pathogenic vs. non-pathogenic strains. […]
(§2) Stock solutions of propidium iodide (PI), nucleic acid stain (Molecular probes, Eugene, Oreg.) were made from solid form by dissolving PI (MW=668.4) in deionized water at 1 mg/mL (1.5 mM) and stored at 4° C., protected from light. […] The binding pattern of the different bacterial cells was imaged using a Zeiss axiovert inverted microscope and recorded with a Zeiss axiocam digital camera. Surface density of the bound bacterial cells was analyzed and plotted using imageJ software from NIH.
(§3) Dielectric property changes due to AMP-bacteria interactions were probed using a Fast-Fourier Transform (FFT) spectrum analyzer. […] For real-time measurements, the impedance vs. time data was recorded while buffer solutions or different dilutions of bacterial solutions flowed through the microfluidic channel. […]

E. coli O157:H7 cells = experiment: Impedance spectroscopy of magainin-functionalized interdigitated microelectrode array, sensitivity measurements; type: binding; conditions: E. coli O157:H7 10^7 CFU/mL; response at 10 Hz
Experimental: FIG. 2 schematically outlines the sensing platform. AMPs are first immobilized on microfabricated interdigitated gold electrodes, anode 10 and cathode 12 (FIG. 2A). Magainin I was acquired with an additional cysteine residue at the C-terminus (FIG. 2B), allowing for facile and site specific covalent attachment to the gold electrodes. Next, heat-killed bacterial cells were injected and incubated with the AMP-modified electrodes. If the bacteria are recognized by the AMPs, binding will occur (FIG. 2C), leading to dielectric property changes which can be monitored via a spectrum analyzer. The impedance was measured over a frequency range of 10 Hz to 100 kHz.
Sensitivity of microbial detection is a key determinant for utility of the biosensor. To this end, the sensitivity of the magainin-functionalized microelectrode array in detecting bacterial cells was determined using impedance spectroscopy. […] A “blank” device with no immobilized AMPs was also tested for comparison. […] As the frequency increases, the contribution to the impedance from the bacterial cells decreases, leaving only the dielectric relaxation of small dipoles including water molecules in the buffer solution to affect the measured impedance. FIG. 3B depicts the impedance change at the fixed frequency of 10 Hz. […]

Salmonella typhimurium = experiment: Selectivity of AMP-functionalized biosensor, pathogenic E. coli relative to Salmonella; type: binding; conditions: 10^7 CFU/mL
Experimental: as §1, §2, §3

pathogenic E. coli cells = experiment: Real-time detection in microfluidic flow cell, impedance response; type: binding; conditions: flow rate 5 μL/min
Experimental: To simulate the use of the AMP microelectrodes in everyday applications, such as direct water sampling, the biosensor response tested to perform in real time, as shown in FIG. 8. First, a microfluidic cell was bonded to the interdigitated biosensor chip (FIG. 8A), such that the electrodes were perpendicular to the direction of the sample flow (FIG. 8B). Next, fluid was injected using a syringe pump connected to the inlet port, and allowed to flow through to the outlet port, at a flow rate of 100 μL/min. The flow cell was first flushed with buffer to establish a baseline. Various dilutions (10^4-10^7 CFU/mL) of pathogenic E. coli cells in PBS were then injected to the channel at a reduced flow rate of 5 μL/min for 30 min. […] Simultaneously, the impedance response was continuously monitored during the sample flow-through process (FIG. 8D). […] This difference between detection in flowing and static water sample has also been reported in fluorescent based assays. This difference is attributed to the opposing effects of shear and mixing on the binding kinetics.
Interdigitated capacitive electrodes were microfabricated on 4″ p-type silicon wafers (boron-doped, <100>, 10-16 Ω-cm, 550 μm thick). A 1 μm thick silicon dioxide layer was deposited on the wafer by plasma enhanced chemical vapor deposition (PECVD) to form electrical insulation between the Si substrate and the capacitive electrodes. S1813 photoresist was patterned using photolithography, followed by electron-beam evaporation of 10 nm Ti and 300 nm Au under high vacuum conditions. The titanium layer helps to provide adhesion of the Au to the SiO2. The IMA was then finally developed by lift-off patterning of the metallic layer in acetone with ultrasonic activation. […]
as §3

[1] = tested on: E. coli O157:H7 bacterial cell; experiment: Single bacterium detection on graphene sensors functionalized with antimicrobial peptide, simultaneous resistance and optical data; type: binding; conditions: compared to non-functionalized graphene
Excerpt: Simultaneous collection of electrical and fluorescence data from the graphene sensors in the presence of fluorescently labeled E. coli cells clearly indicate that the change in the resistance recorded corresponds to the binding and unbinding of the bacterial cell from the graphene surface. The resistance of the graphene sensor remains at the baseline value until the bacterial cell diffuses to the sensor surface and drops down by approximately 0.6 percentage of the original, once the bacterial cell binds to the graphene surface.
The resistance of the sensor decreases from the baseline value up on the binding of the negatively charged bacterial cell and returns back to the initial value up on unbinding, indicating a p-type behavior of the graphene transducer. […] In order to determine the effect of the immobilized AMPs on the binding/unbinding properties simultaneous resistance and optical data were recorded on graphene sensors functionalized with antimicrobial peptides. […]
Electrical measurements for the detection of single bacteria binding measurements were performed with a lock-in detection system using Stanford Research Systems 810 DSP lock-in amplifier. […] The resistance of the graphene sensor was monitored continuously in the presence of analyte sample of various dilutions of bacterial cells. […]

Helicobacter pylori = conditions: cited from earlier work
Escherichia coli = conditions: cited from earlier work
[2] = tested on: methicillin resistant strains of S. aureus; conditions: cited from earlier work
Staphylococcus aureus = conditions: cited from earlier work

Substance	impedance difference, pathogenic Gram-negative E. coli and Salmonella relative to Gram-positive Listeria (Listeria monocytogenes)	response of the biosensor towards target cells with increasing concentration of immobilized magainin (E. coli O157:H7 cells)	response for pathogenic E. coli relative to Salmonella (Salmonella typhimurium)	time to measurable response relative to the control sample, all samples (pathogenic E. coli cells; 10^4-10^7 CFU/mL in PBS) [min]	time to saturation of responses (pathogenic E. coli cells; 10^4-10^7 CFU/mL in PBS)	time to response, highest concentration sample (pathogenic E. coli cells) [s]	effect of immobilized peptide on unbinding of bacterial cells [1]	MIC (Helicobacter pylori) [µg/mL]	MIC (Escherichia coli) [µg/mL]	antimicrobial activity [2]	MIC (Staphylococcus aureus) [µg/mL]
GIGKFLHSAGKFGKAFVGEIMKS [magainin I]	two	increase monotonically	slightly larger response	≤ 5	ca. 20 min	≤ 30					
Odorranin-HP [O-HP]							slows the unbinding kinetics	20	30	exert antimicrobial activity	5
